The source of these data is ChEMBL document CHEMBL3638434, “1H-pyrrolo[2,3 b]-pyridine derivatives” (2014).

The experiment has as its target T1, 3-phosphoinositide-dependent protein kinase 1 (Homo sapiens, UniProt O15530).
T1 sequence (O15530 whole entry): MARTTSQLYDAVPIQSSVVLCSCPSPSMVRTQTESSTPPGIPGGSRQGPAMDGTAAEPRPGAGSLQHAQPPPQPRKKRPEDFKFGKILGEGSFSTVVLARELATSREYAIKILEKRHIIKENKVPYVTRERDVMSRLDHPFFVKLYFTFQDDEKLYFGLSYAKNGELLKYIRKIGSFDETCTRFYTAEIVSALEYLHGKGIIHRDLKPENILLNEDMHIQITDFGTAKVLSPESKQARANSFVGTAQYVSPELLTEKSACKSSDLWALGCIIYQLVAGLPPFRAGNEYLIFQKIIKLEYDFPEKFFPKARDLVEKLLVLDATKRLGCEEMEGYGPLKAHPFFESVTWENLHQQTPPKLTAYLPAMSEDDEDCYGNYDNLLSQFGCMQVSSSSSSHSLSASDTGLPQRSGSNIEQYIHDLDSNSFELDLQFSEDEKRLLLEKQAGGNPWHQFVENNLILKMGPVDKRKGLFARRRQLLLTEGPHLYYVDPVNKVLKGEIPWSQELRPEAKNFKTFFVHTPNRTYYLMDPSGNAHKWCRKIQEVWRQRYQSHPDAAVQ
The experiment in a line: Inhibition Assay: The compound inhibits the target protein in the enzymatic PDK1 inhibition assay.

What is called IC50 is the midpoint of a concentration-inhibition curve. A lower IC50 goes with greater potency in that assay. `Cn1cc(-c2cnc3[nH]cc(-c4cc(N(CCC#N)c5ccccc5)nc(N)n4)c3c2)cn1` displayed a 50% inhibitory concentration (IC50) of 7.9 nM.

Compound `CN(c1cccc(F)c1)c1cc(-c2c[nH]c3ncc(-c4cnn(C)c4)cc23)ncn1` came in with an IC50 of 190 nM.
